{"source": "patent US8383838B2", "about": "“5-oxo-2,3,4,5-tetrahydro-benzo[b]oxepine-4-carboxylic acid amides and 2,3-dihydro-benzo[b]oxepine-4-carboxylic acid amides for treatment and prevention of diabetes typ 1 and 2” (Merck Patent Gesellschaft mit Beschränkter Haftung, priority 2008, dated 2013)"}
{"biological_target": "T1, human GK (Homo sapiens, UniProt P35557)", "T1 sequence (P35557 1-465)": "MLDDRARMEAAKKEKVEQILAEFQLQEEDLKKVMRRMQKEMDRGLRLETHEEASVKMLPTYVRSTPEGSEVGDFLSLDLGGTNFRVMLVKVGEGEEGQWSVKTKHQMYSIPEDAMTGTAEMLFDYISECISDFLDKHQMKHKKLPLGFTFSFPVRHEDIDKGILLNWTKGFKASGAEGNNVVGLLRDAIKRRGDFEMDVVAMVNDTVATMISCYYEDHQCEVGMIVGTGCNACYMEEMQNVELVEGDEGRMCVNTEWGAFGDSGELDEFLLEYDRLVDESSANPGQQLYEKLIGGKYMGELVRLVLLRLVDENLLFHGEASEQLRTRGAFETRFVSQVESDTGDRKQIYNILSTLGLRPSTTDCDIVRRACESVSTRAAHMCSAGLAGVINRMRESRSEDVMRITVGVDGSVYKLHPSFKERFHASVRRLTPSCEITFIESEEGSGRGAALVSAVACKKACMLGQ", "experiment": "Glucokinase Activation Screening Assay (coupled enzyme assay with PK and LDH)", "type": "biochemical", "settings": "activation of human GK in percent of control (control incubation: 2 mM glucose, 0.91% DMSO); compound concentration not stated", "experimental": "Glucokinase Activation Screening Assay\nGK activity (human or rat enzyme) is measured by a coupled enzyme assay using pyruvate kinase (PK) and lactate dehydrogenase (LDH) as coupling enzymes. GK activity is calculated from the decline in NADH monitored photometrically with a microtiter plate (MTP) reader at 340 nm.\nFor screening purposes, the GK assay is routinely run in a 384-MTP format, in a total volume of 33 μl/well. 10 μl of the ATP-regeneration solution (in HEPES-buffer*, pH 7.0, 6.73 U/ml pyruvate kinase, 6.8 U/ml lactate dehydrogenase) and 10 μl of the glucokinase-/glucose solution (15 μg/ml, 6.6 mM glucose in HEPES-buffer*, pH 7.0; the concentration of the glucose stock-solution was 660 mM in Millipore H2O) were mixed together with […] of a 10% DMSO solution (in HEPES-buffer*, pH 7.0) containing 3.3-fold the amounts of the compounds to achieve final compound concentrations in the range between 1 nM to 30 μM (sometimes 300 μM) in the assay solution (s. below). The solutions were mixed for 5 sec, and after a centrifugation at 243×g for 5 min, the solutions were preincubated for 25 min at room temperature.\nThe reaction was started by the addition of 10 μl of the NADH-/ATP-solution (4.29 mM NADH, 4.95 mM ATP, in HEPES-buffer*). The MTP was shaken for 5 sec., and then, the absorbance at 340 nm was monitored continuously in a MTP-reader (TECAN Spectro fluor plus) for the next 27 min (with a MTP-cycling time of 199 sec.). The final concentrations of the various components were as follows: 49.5 mM Hepes, pH 7.0, 1.49 mM PEP, 1,3 mM NADH, 49.5 mM KCl, 4.96 mM MgCl2, 1.5 mM Mg-ATP, 1.98 mM DTT, 2.04 U/ml pyruvate kinase, 2.06 U/ml lactate-dehydrogenase, 0.91% DMSO, 0.15 μg/well glucokinase, and test compounds in the range between 1 nM and 300 μM.\nThe change in the optical density (ΔOD340 nm) in the presence of the compound was expressed relative to the ΔOD340 nm, ctrl of the control incubation (in the presence of 2 mM glucose and 0.91% DMSO), taking into account the optical density of the blank sample (incubation in the absence of 2 mM glucose). For the determination of the half maximal effective concentration (EC50), the %-Ctrl-values were plotted in a semi-logarithmic graph against the conc. of the compound of interest. The data points were fitted to a sigmoid curve function (f(x)=((%-Ctrlmax−%-Ctrlmin)/(1−(EC50/x **^n(Hill)))+%-Ctrlmin)) by a non-linear regression analysis.\n* Hepes-buffer (50 mM Hepes, pH 7.0, 5 mM MgCl2, 50 mM KCl, 1.5 mM PEP, 0.1% BSA). DTT was added to the Hepes-buffer from a 200X stock solution (in Millipore H2O) freshly each day. The final concentration of DTT in the Hepes-buffer is 2 mM.", "units": {"hGK % CTL": "% CTL"}}
{"smiles": "O=C(Nc1ccccn1)C1CCOc2cc(Cl)c(Cl)cc2C1=O", "note": "(stereo not drawn) [Compound 1, 7,8-Dichloro-5-oxo-2,3,4,5-tetrahydro-benzo[b]oxepine-4-carboxylic acid pyridine-2-ylamide]", "hGK % CTL": 312}
{"smiles": "O=C(Nc1nccs1)C1CCOc2cc(F)ccc2C1=O", "note": "(stereo not drawn) [Compound 2, 8-Fluoro-5-oxo-2,3,4,5-tetrahydro-benzo[b]oxepine-4-carboxylic acid thiazol-2-ylamide]", "hGK % CTL": 218}
{"smiles": "CCc1ccc2c(c1)OCCC(C(=O)Nc1ccccn1)C2=O", "note": "(stereo not drawn) [Compound 3, 8-Ethyl-5-oxo-2,3,4,5-tetrahydro-benzo[b]oxepine-4-carboxylic acid pyridine-2-ylamide]", "hGK % CTL": 291}
{"smiles": "O=C(Nc1ccccn1)C1=Cc2ccccc2OCC1", "note": "[Compound 4, 2,3-Dihydro-benzo[b]oxepine-4-carboxylic acid pyridin-2-ylamide]", "hGK % CTL": 129}
{"smiles": "O=C(Nc1ccccn1)C1CCOc2cc(Cl)ccc2C1=O", "note": "(stereo not drawn) [Compound 5, 8-Chloro-5-oxo-2,3,4,5-tetrahydro-benzo[b]oxepine-4-carboxylic acid pyridin-2-ylamide]", "hGK % CTL": 388}
{"smiles": "O=C(Nc1ccccn1)C1CCOc2ccccc2C1=O", "note": "(stereo not drawn) [Compound 6, 5-Oxo-2,3,4,5-tetrahydro-benzo[b]oxepine-4-carboxylic acid pyridin-2-ylamide]", "hGK % CTL": 245}
{"smiles": "O=C(Nc1nccs1)C1CCOc2cc(Cl)ccc2C1=O", "note": "(stereo not drawn) [Compound 7, 8-Chloro-5-oxo-2,3,4,5-tetrahydro-benzo[b]oxepine-4-carboxylic acid thiazol-2-ylamide]", "hGK % CTL": 215}
{"smiles": "O=C(Nc1nccs1)C1CCOc2cc(Cl)c(Cl)cc2C1=O", "note": "(stereo not drawn) [Compound 8, 7,8-Dichloro-5-oxo-2,3,4,5-tetrahydro-benzo[b]oxepine-4-carboxylic acid thiazol-2-ylamide]", "hGK % CTL": 194}
{"smiles": "CCc1ccc2c(c1)OCCC(C(=O)Nc1nccs1)C2=O", "note": "(stereo not drawn) [Compound 9, 8-Ethyl-5-oxo-2,3,4,5-tetrahydro-benzo[b]oxepine-4-carboxylic acid thiazol-2-ylamide]", "hGK % CTL": 207}
{"smiles": "O=C(Nc1ccccn1)C1CCOc2ccc(Cl)cc2C1=O", "note": "(stereo not drawn) [Compound 10, 7-Chloro-5-oxo-2,3,4,5-tetrahydro-benzo[b]oxepine-4-carboxylic acid pyridin-2-ylamide]", "hGK % CTL": 192}
{"smiles": "O=C(Nc1nccs1)C1CCOc2ccc(Cl)cc2C1=O", "note": "(stereo not drawn) [Compound 11, 7-Chloro-5-oxo-2,3,4,5-tetrahydro-benzo[b]oxepine-4-carboxylic acid thiazol-2-ylamide]", "hGK % CTL": 121}
{"smiles": "COc1ccc2c(c1)C(=O)C(C(=O)Nc1ccccn1)CCO2", "note": "(stereo not drawn) [Compound 12, 7-Methoxy-5-oxo-2,3,4,5-tetrahydro-benzo[b]oxepine-4-carboxylic acid pyridin-2-ylamide]", "hGK % CTL": 149}
{"smiles": "CC1(C)COc2cc(-c3ccc(F)cc3)ccc2C(=O)C1C(=O)Nc1ccccn1", "note": "(stereo not drawn) [Compound 13, 8-(4-Fluoro-phenyl)-3,3-dimethyl-5-oxo-2,3,4,5-tetrahydro-benzo[b]oxepine-4-carboxylic acid pyridin-2-ylamide]", "hGK % CTL": 124}
{"smiles": "O=C(Nc1nccs1)C1CCOc2ccccc2C1=O", "note": "(stereo not drawn) [Compound 14, 5-Oxo-2,3,4,5-tetrahydro-benzo[b]oxepine-4-carboxylic acid thiazol-2-ylamide]", "hGK % CTL": 115}
{"smiles": "O=C(Nc1ccccn1)C1CCOc2ccc(Oc3ccccc3)cc2C1=O", "note": "(stereo not drawn) [Compound 15, 5-Oxo-7-phenoxy-2,3,4,5-tetrahydro-benzo[b]oxepine-4-carboxylic acid pyridin-2-ylamide]", "hGK % CTL": 94}
{"smiles": "CC1(C)COc2cc(Cl)c(F)cc2C(=O)C1C(=O)Nc1ccccn1", "note": "(stereo not drawn) [Compound 16, 8-Chloro-7-fluoro-3,3-dimethyl-5-oxo-2,3,4,5-tetrahydro-benzo[b]oxepine-4-carboxylic acid pyridin-2-ylamide]", "hGK % CTL": 181}
{"smiles": "CCc1ccc2c(c1)OCC(C)(C)C(C(=O)Nc1ccccn1)C2=O", "note": "(stereo not drawn) [Compound 17, 8-Ethyl-3,3-dimethyl-5-oxo-2,3,4,5-tetrahydro-benzo[b]oxepine-4-carboxylic acid pyridin-2-ylamide]", "hGK % CTL": 104}
{"smiles": "O=C(Nc1nccs1)C1=Cc2ccccc2OCC1", "note": "[Compound 18, 2,3-Dihydro-benzo[b]oxepine-4-carboxylic acid thiazol-2-ylamide]", "hGK % CTL": 161}
